Literature values as cited in patent US20130281457A1, “PHARMACEUTICAL COMPOSITIONS COMPRISING 5-CHLORO-N-(-METHYL)-2-THIOPHENCARBOXAMID” (Ratiopharm GmbH, priority 2008, published 2013).

- solubility in water: only limited solubility in water
SMILES: O=C(NC[C@H]1CN(c2ccc(N3CCOCC3=O)cc2)C(=O)O1)c1ccc(Cl)s1 [Compound I, 5-Chloro-N-({(5S)-2-oxo-3-[4-(3-oxo-4-morpholinyl)-phenyl]-1,3-oxazolidin-5-yl}-methyl)-2-thiophencarboxamid]
